The compounds below were run against T1, Mu-type opioid receptor (Homo sapiens, UniProt P35372) (assay: Antagonist activity assessed as inhibition of loperamide-stimulated [35S]GTPgammaS binding to human mu opioid receptor expressed in CHO cells).
T1 sequence (P35372 whole entry): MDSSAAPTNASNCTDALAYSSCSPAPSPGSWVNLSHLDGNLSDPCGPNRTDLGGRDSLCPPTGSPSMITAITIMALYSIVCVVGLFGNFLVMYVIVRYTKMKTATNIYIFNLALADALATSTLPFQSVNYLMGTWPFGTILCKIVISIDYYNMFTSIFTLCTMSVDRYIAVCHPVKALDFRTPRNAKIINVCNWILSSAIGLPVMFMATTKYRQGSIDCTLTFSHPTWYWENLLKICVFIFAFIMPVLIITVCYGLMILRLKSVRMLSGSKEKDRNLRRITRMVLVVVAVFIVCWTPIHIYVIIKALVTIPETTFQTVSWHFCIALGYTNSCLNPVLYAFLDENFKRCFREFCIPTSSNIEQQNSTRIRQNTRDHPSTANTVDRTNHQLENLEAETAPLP
Format: functional, cell-based
Work on C[C@H]1CN2CCN(CC3CCCCC3)C[C@H]2C[C@@]1(C)c1cccc(O)c1 yielded an IC50 of 1.1 nM.
C[C@H]1CN2CCN(Cc3ccccc3O)C[C@H]2C[C@@]1(C)c1cccc(O)c1 was tested, and the IC50 was 1.6 nM.
Cc1ccc(CN2CCN3C[C@H](C)[C@](C)(c4cccc(O)c4)C[C@@H]3C2)cc1 was tested, and the IC50 was 9.5 nM.
Work on C[C@H]1CN2CCN(C(=O)Nc3ccccc3)C[C@H]2C[C@@]1(C)c1cccc(O)c1 yielded an IC50 of 16 nM.
With C[C@H]1CN2CCN(c3ccccc3)C[C@H]2C[C@@]1(C)c1cccc(O)c1 the IC50 was 54 nM.
Compound C[C@H]1CN2CCN(Cc3ccnc4ccccc34)C[C@H]2C[C@@]1(C)c1cccc(O)c1 has an IC50 of 80 nM.
COC(=O)c1cccc(CN2CCN3C[C@H](C)[C@](C)(c4cccc(O)c4)C[C@@H]3C2)c1 showed an IC50 of 6.9 nM.
In the case of C[C@H]1CN2CCN(Cc3ccccn3)C[C@H]2C[C@@]1(C)c1cccc(O)c1, the IC50 is reported as 13 nM.
With C[C@H]1CN2CCCN(Cc3ccccc3)C[C@H]2C[C@@]1(C)c1cccc(O)c1 the IC50 was 15 nM.
C[C@H]1CN2CCN(Cc3ccccc3Cl)C[C@H]2C[C@@]1(C)c1cccc(O)c1 showed an IC50 of 1.8 nM.
C[C@H]1CN2CCN(Cc3cccc4ccccc34)C[C@H]2C[C@@]1(C)c1cccc(O)c1 gave an IC50 of 16 nM.
For C[C@H]1CN2CCN(Cc3cccnc3)C[C@H]2C[C@@]1(C)c1cccc(O)c1, the IC50 was 7.5 nM.
Work on C[C@H]1CN2CCN(Cc3cccs3)C[C@H]2C[C@@]1(C)c1cccc(O)c1 yielded an IC50 of 0.63 nM.

These compounds were tested against T2, Kappa-type opioid receptor (Homo sapiens, UniProt P41145) (assay: Antagonist activity assessed as inhibition of U50488-stimulated [35S]GTP-gamma-S binding to human kappa opioid receptor expressed in CHO cells).
T2 sequence (P41145 whole entry): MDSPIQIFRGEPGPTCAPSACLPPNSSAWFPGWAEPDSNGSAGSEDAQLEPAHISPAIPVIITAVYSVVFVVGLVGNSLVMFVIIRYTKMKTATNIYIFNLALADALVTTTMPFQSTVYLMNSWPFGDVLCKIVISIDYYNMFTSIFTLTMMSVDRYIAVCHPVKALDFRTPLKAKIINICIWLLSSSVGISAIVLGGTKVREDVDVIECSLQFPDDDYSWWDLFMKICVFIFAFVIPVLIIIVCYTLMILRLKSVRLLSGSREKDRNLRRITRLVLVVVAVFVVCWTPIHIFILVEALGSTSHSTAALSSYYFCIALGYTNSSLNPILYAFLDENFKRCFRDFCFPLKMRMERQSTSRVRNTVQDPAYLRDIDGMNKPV
Format: functional, cell-based
C[C@H]1CN2CCN(CC3CCCCC3)C[C@H]2C[C@@]1(C)c1cccc(O)c1 was tested, and the IC50 was 36 nM.
With C[C@H]1CN2CCN(Cc3ccccc3O)C[C@H]2C[C@@]1(C)c1cccc(O)c1 the IC50 was 9.4 nM.
Work on C[C@H]1CN2CCN(Cc3ccccc3Cl)C[C@H]2C[C@@]1(C)c1cccc(O)c1 yielded an IC50 of 10 nM.
For C[C@H]1CN2CCN(Cc3cccs3)C[C@H]2C[C@@]1(C)c1cccc(O)c1, the IC50 was 6.6 nM.

What follows are compounds tested against T2, Kappa-type opioid receptor (assay: Displacement of [3H]diprenorphine from human cloned kappa opioid receptor expressed in CHO cells).
Format: cell-based
C[C@H]1CN2CCN(CC3CCCCC3)C[C@H]2C[C@@]1(C)c1cccc(O)c1 gave a Ki of 84 nM.
Work on C[C@H]1CN2CCN(Cc3ccccc3O)C[C@H]2C[C@@]1(C)c1cccc(O)c1 yielded a Ki of 76 nM.
In the case of Cc1ccc(CN2CCN3C[C@H](C)[C@](C)(c4cccc(O)c4)C[C@@H]3C2)cc1, the Ki is reported as 300 nM.
For C[C@H]1CN2CCN(C(=O)Nc3ccccc3)C[C@H]2C[C@@]1(C)c1cccc(O)c1, the Ki was 420 nM.
C[C@H]1CN2CCN(c3ccccc3)C[C@H]2C[C@@]1(C)c1cccc(O)c1 gave a Ki of 3700 nM.
COC(=O)c1cccc(CN2CCN3C[C@H](C)[C@](C)(c4cccc(O)c4)C[C@@H]3C2)c1 showed a Ki of 140 nM.
Compound C[C@H]1CN2CCN(Cc3ccccn3)C[C@H]2C[C@@]1(C)c1cccc(O)c1 has a Ki of 390 nM.
C[C@H]1CN2CCCN(Cc3ccccc3)C[C@H]2C[C@@]1(C)c1cccc(O)c1 gave a Ki of 540 nM.
C[C@H]1CN2CCN(Cc3ccccc3Cl)C[C@H]2C[C@@]1(C)c1cccc(O)c1 was tested, and the Ki was 16 nM.
Work on C[C@H]1CN2CCN(Cc3cccc4ccccc34)C[C@H]2C[C@@]1(C)c1cccc(O)c1 yielded a Ki of 230 nM.
With C[C@H]1CN2CCN(Cc3cccnc3)C[C@H]2C[C@@]1(C)c1cccc(O)c1 the Ki was 400 nM.
Compound C[C@H]1CN2CCN(Cc3cccs3)C[C@H]2C[C@@]1(C)c1cccc(O)c1 has a Ki of 37 nM.

Each compound was assayed against T3, Delta-type opioid receptor (Homo sapiens, UniProt P41143) (assay: Displacement of [3H]diprenorphine from human cloned delta opioid receptor expressed in CHO cells).
T3 sequence (P41143 whole entry): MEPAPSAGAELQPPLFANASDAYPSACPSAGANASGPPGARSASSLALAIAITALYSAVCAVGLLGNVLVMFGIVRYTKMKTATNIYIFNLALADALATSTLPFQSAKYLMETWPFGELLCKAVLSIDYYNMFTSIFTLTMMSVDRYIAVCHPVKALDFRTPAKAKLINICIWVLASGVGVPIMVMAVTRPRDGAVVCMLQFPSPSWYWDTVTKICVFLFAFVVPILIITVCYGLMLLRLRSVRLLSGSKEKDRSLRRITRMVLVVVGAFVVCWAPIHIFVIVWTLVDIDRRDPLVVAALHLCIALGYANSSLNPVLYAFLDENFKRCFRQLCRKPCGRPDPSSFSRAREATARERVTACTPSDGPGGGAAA
Format: cell-based
For C[C@H]1CN2CCN(CC3CCCCC3)C[C@H]2C[C@@]1(C)c1cccc(O)c1, the Ki was 65 nM.
C[C@H]1CN2CCN(Cc3ccccc3O)C[C@H]2C[C@@]1(C)c1cccc(O)c1 gave a Ki of 300 nM.
Work on Cc1ccc(CN2CCN3C[C@H](C)[C@](C)(c4cccc(O)c4)C[C@@H]3C2)cc1 yielded a Ki of 350 nM.
For C[C@H]1CN2CCN(C(=O)Nc3ccccc3)C[C@H]2C[C@@]1(C)c1cccc(O)c1, the Ki was 540 nM.
Compound C[C@H]1CN2CCN(c3ccccc3)C[C@H]2C[C@@]1(C)c1cccc(O)c1 has a Ki of 960 nM.
With C[C@H]1CN2CCN(Cc3ccccn3)C[C@H]2C[C@@]1(C)c1cccc(O)c1 the Ki was 1100 nM.
C[C@H]1CN2CCCN(Cc3ccccc3)C[C@H]2C[C@@]1(C)c1cccc(O)c1 showed a Ki of 2900 nM.
In the case of C[C@H]1CN2CCN(Cc3ccccc3Cl)C[C@H]2C[C@@]1(C)c1cccc(O)c1, the Ki is reported as 57 nM.
Work on C[C@H]1CN2CCN(Cc3cccnc3)C[C@H]2C[C@@]1(C)c1cccc(O)c1 yielded a Ki of 840 nM.
Work on C[C@H]1CN2CCN(Cc3cccs3)C[C@H]2C[C@@]1(C)c1cccc(O)c1 yielded a Ki of 260 nM.

The compounds below were run against T1, Mu-type opioid receptor (assay: Displacement of [3H]diprenorphine from human cloned mu opioid receptor expressed in CHO cells).
Format: cell-based
C[C@H]1CN2CCN(CC3CCCCC3)C[C@H]2C[C@@]1(C)c1cccc(O)c1 showed a Ki of 1.1 nM.
C[C@H]1CN2CCN(Cc3ccccc3O)C[C@H]2C[C@@]1(C)c1cccc(O)c1 gave a Ki of 1.8 nM.
With Cc1ccc(CN2CCN3C[C@H](C)[C@](C)(c4cccc(O)c4)C[C@@H]3C2)cc1 the Ki was 14 nM.
In the case of C[C@H]1CN2CCN(C(=O)Nc3ccccc3)C[C@H]2C[C@@]1(C)c1cccc(O)c1, the Ki is reported as 31 nM.
C[C@H]1CN2CCN(c3ccccc3)C[C@H]2C[C@@]1(C)c1cccc(O)c1 showed a Ki of 220 nM.
C[C@H]1CN2CCN(Cc3ccnc4ccccc34)C[C@H]2C[C@@]1(C)c1cccc(O)c1 was tested, and the Ki was 88 nM.
With COC(=O)c1cccc(CN2CCN3C[C@H](C)[C@](C)(c4cccc(O)c4)C[C@@H]3C2)c1 the Ki was 11 nM.
Compound C[C@H]1CN2CCN(Cc3ccccn3)C[C@H]2C[C@@]1(C)c1cccc(O)c1 has a Ki of 20 nM.
For C[C@H]1CN2CCCN(Cc3ccccc3)C[C@H]2C[C@@]1(C)c1cccc(O)c1, the Ki was 160 nM.
C[C@H]1CN2CCN(Cc3ccccc3Cl)C[C@H]2C[C@@]1(C)c1cccc(O)c1 showed a Ki of 0.47 nM.
With C[C@H]1CN2CCN(Cc3cccc4ccccc34)C[C@H]2C[C@@]1(C)c1cccc(O)c1 the Ki was 3.5 nM.
With C[C@H]1CN2CCN(Cc3cccnc3)C[C@H]2C[C@@]1(C)c1cccc(O)c1 the Ki was 13 nM.
C[C@H]1CN2CCN(Cc3cccs3)C[C@H]2C[C@@]1(C)c1cccc(O)c1 was tested, and the Ki was 1.4 nM.

What follows are compounds tested against T3, Delta-type opioid receptor (assay: Inhibition of [3H]diprenorphine binding to human cloned delta opioid receptor expressed in CHO cells at 10 uM).
Format: cell-based
C[C@H]1CN2CCN(Cc3ccnc4ccccc34)C[C@H]2C[C@@]1(C)c1cccc(O)c1 gave an inhibition of 28%.
In the case of COC(=O)c1cccc(CN2CCN3C[C@H](C)[C@](C)(c4cccc(O)c4)C[C@@H]3C2)c1, the inhibition is reported as 43%.
C[C@H]1CN2CCN(Cc3cccc4ccccc34)C[C@H]2C[C@@]1(C)c1cccc(O)c1 showed an inhibition of 60%.

These compounds were tested against T3, Delta-type opioid receptor (assay: Antagonist activity assessed as inhibition of BW373U86-stimulated [35S]GTP-gamma-S binding to human delta opioid receptor expressed in CHO cells).
Format: functional, cell-based
With C[C@H]1CN2CCN(CC3CCCCC3)C[C@H]2C[C@@]1(C)c1cccc(O)c1 the IC50 was 85 nM.
C[C@H]1CN2CCN(Cc3ccccc3O)C[C@H]2C[C@@]1(C)c1cccc(O)c1 showed an IC50 of 570 nM.
Work on C[C@H]1CN2CCN(Cc3ccccc3Cl)C[C@H]2C[C@@]1(C)c1cccc(O)c1 yielded an IC50 of 190 nM.
With C[C@H]1CN2CCN(Cc3cccs3)C[C@H]2C[C@@]1(C)c1cccc(O)c1 the IC50 was 340 nM.

These compounds were tested against T2, Kappa-type opioid receptor (assay: Inhibition of [3H]diprenorphine binding to human cloned kappa opioid receptor expressed in CHO cells at 10 uM).
Format: cell-based
C[C@H]1CN2CCN(Cc3ccnc4ccccc34)C[C@H]2C[C@@]1(C)c1cccc(O)c1 showed an inhibition of 55%.

From ChEMBL document CHEMBL1137297, “Synthesis and pharmacological evaluation of novel octahydro-1H-pyrido[1,2-a]pyrazine as mu-opioid receptor antagonists” (J Med Chem, 2006)
